Literature values in CN101647784A, “卡马西平缓释片及其制备方法” (Beijing Kexin Bicheng Medicine Technology Development Co Ltd, priority 2008, dated 2010).

Details: early epilepsy and single seizures; 406 subjects, immediate versus deferred treatment

NC(=O)N1c2ccccc2C=Cc2ccccc21 [卡马西平]
显著影响: effect on time to 1-year remission | effect on time to 2-year remission | effect on time to first seizure
